Measurements reported in PMC11106742, “Computational Design of Cyclic Peptide Inhibitors of a Bacterial Membrane Lipoprotein Peptidase” (ACS Chemical Biology, 2024).
Bridge positions count the residues as written; N and C are the ends. Square brackets hold non-standard residues; d marks the D form. Peptide text beside a SMILES is read from it. * marks the point of attachment. aIle = CC[C@@H](C)[C@H](N)C(=O)O; aThr = C[C@H](O)[C@H](N)C(=O)O; NMeL = CN[C@@H](CC(C)C)C(=O)O; dOrn = NCCC[C@@H](N)C(=O)O; dDab = NCC[C@@H](N)C(=O)O; Octanoyl = CCCCCCCC(=O)*; Orn = NCCC[C@H](N)C(=O)O; Dab = NCC[C@H](N)C(=O)O; Hexanoyl = CCCCCC(=O)*

system: E. coli; format: cell-based; details: not given
Description: Initially, a library of six lipid amide analogues was synthesized via cyclization between the side-chain epsilon -NH2 of an N-terminal L-lysine residue and the C-terminus of an L-serine residue.
Each analogue was acylated with a simple linear lipid, ranging from C3 to C8 in length (Figure S1). To further probe the potential of the amide isostere, five additional analogues were synthesized in which the D- or L-stereoisomer of cationic amino acids diaminobutyric acid (Dab), ornithine (Orn), or Lys were used as the N-terminal cyclization partner. Each analogue was acylated with an octanoyl tail and the subsequent effects of ring size and/or stereochemistry, as well as lipid length, determined by assessing antimicrobial activity against E. coli. Peptides were also screened against S. aureus.
Unfortunately, each analogue was unable to […]

Question: For `CC[C@@H](C)[C@H](NC(=O)[C@H](CC(C)C)NC)C(=O)N[C@@H](CO)C(=O)N[C@H](C(=O)NCC(=O)O)[C@H](C)O` [S1, HN-Globomycin] (H-[NMeL][aIle]S[aThr]G-OH), which MIC is on record?
Answer: > 200 µg/mL

Question: Which MIC does the source give for `CC[C@H](C)[C@H](NC(=O)[C@H](CC(C)C)NC)C(=O)N[C@@H](CO)C(=O)N[C@H](C(=O)NCC(=O)O)[C@@H](C)O` [S2, Non-alloHN-Globomycin] (H-[NMeL]ISTG-OH) here?
Answer: > 200 µg/mL

Question: For `CCCCCCCC(=O)N(C)[C@@H](CC(C)C)C(=O)N[C@H](C(=O)N[C@@H](CO)C(=O)N[C@H](C(=O)NCC(=O)O)[C@H](C)O)[C@H](C)CC` [S3, Octanoyl-Globomycin] (Octanoyl-[NMeL][aIle]S[aThr]G-OH), which MIC is on record?
Answer: > 200 µg/mL

Question: `CCCCCCCC(=O)N(C)[C@@H](CC(C)C)C(=O)N[C@H](C(=O)N[C@@H](CO)C(=O)N[C@H](C(=O)NCC(=O)O)[C@@H](C)O)[C@@H](C)CC` [S4, Non-alloOctanoyl-Globomycin] (Octanoyl-[NMeL]ISTG-OH) was tested. Which MIC did it give?
Answer: > 200 µg/mL

Question: `CCCCCC(=O)N[C@H]1CCCCNC(=O)[C@H](CO)NC(=O)[C@H](CO)NC(=O)[C@H]([C@H](C)CC)NC(=O)[C@H](CC(C)C)N(C)C1=O` [S8, C6-Globomycin(N-Lys)] (Hexanoyl-K[NMeL][aIle]SS; lactam 1-C) was tested. Which MIC did it give?
Answer: > 200 µg/mL

Question: With `CCCCCCCC(=O)N[C@H]1CCCCNC(=O)[C@H](CO)NC(=O)[C@H](CO)NC(=O)[C@H]([C@H](C)CC)NC(=O)[C@H](CC(C)C)N(C)C1=O` [S10, C8-Globomycin(N-Lys)] (Octanoyl-K[NMeL][aIle]SS; lactam 1-C) as the molecule, how does the MIC read?
Answer: > 200 µg/mL

Question: How did the MIC turn out when `CCCCCCCC(=O)N[C@H]1CCCNC(=O)[C@H](CO)NC(=O)[C@H](CO)NC(=O)[C@H]([C@H](C)CC)NC(=O)[C@H](CC(C)C)N(C)C1=O` [S11, C8-Globomycin(N-Orn)] (Octanoyl-[Orn][NMeL][aIle]SS; lactam 1-C) was run?
Answer: > 200 µg/mL

Question: `CCCCCCCC(=O)N[C@H]1CCNC(=O)[C@H](CO)NC(=O)[C@H](CO)NC(=O)[C@H]([C@H](C)CC)NC(=O)[C@H](CC(C)C)N(C)C1=O` [S12, C8-Globomycin(N-Dab)] (Octanoyl-[Dab][NMeL][aIle]SS; lactam 1-C) was tested. Which MIC did it give?
Answer: > 200 µg/mL

Question: For `CCCCCCCC(=O)N[C@H]1CC=CCNC(=O)[C@H](CO)NC(=O)[C@H](CO)NC(=O)[C@H]([C@H](C)CC)NC(=O)[C@H](CC(C)C)N(C)C1=O` [S13, C8-Globomycin(RCM)], which MIC is on record?
Answer: > 200 µg/mL

Question: How did the MIC turn out when `CCCCCCCC(=O)N[C@@H]1CCCCNC(=O)[C@H](CO)NC(=O)[C@H](CO)NC(=O)[C@H]([C@H](C)CC)NC(=O)[C@H](CC(C)C)N(C)C1=O` [S14, C8-Globomycin(N-D-Lys)] (Octanoyl-[dK][NMeL][aIle]SS; lactam 1-C) was run?
Answer: > 200 µg/mL

Question: How did the MIC turn out when `CCCCCCCC(=O)N[C@@H]1CCCNC(=O)[C@H](CO)NC(=O)[C@H](CO)NC(=O)[C@H]([C@H](C)CC)NC(=O)[C@H](CC(C)C)N(C)C1=O` [S15, C8-Globomycin(N-D-Orn)] (Octanoyl-[dOrn][NMeL][aIle]SS; lactam 1-C) was run?
Answer: > 200 µg/mL

Question: With `CCCCCCCC(=O)N[C@@H]1CCNC(=O)[C@H](CO)NC(=O)[C@H](CO)NC(=O)[C@H]([C@H](C)CC)NC(=O)[C@H](CC(C)C)N(C)C1=O` [S16, C8-Globomycin(N-D-Dab)] (Octanoyl-[dDab][NMeL][aIle]SS; lactam 1-C) as the molecule, how does the MIC read?
Answer: > 200 µg/mL

same assay, conditions: against Gram-negative bacteria

Question: With `CCCCCCCC(=O)N[C@H]1CC=CCNC(=O)[C@H](CO)NC(=O)[C@H](CO)NC(=O)[C@H]([C@H](C)CC)NC(=O)[C@H](CC(C)C)N(C)C1=O` [S13, C8-Globomycin(RCM)] as the molecule, how does the “antimicrobial activity (in words)” value read?
Answer: void of antimicrobial activity
